Several values for one entry are separate records, joined by “and”; a condition that tells them apart may be missing. Identical values can stand only once.
Experiments:
[1] = tested on: Penicillium/Aspergillus; assay: Spore trap testing, treated greenhouse: Penicillium/Aspergillus; assay type: in vivo; conditions: 1.2 mg chlorine dioxide gas per hour per 4000 cubic feet
Experimental: (§1) Very low-level chlorine dioxide protection using about 3 mg chlorine dioxide gas per hour for every 4000 cubic feet (50-gram ProKure® D Extended Release Gas product (ProKure® Solutions), 2000 mg total over 4 weeks) was tested to determine the effects on reduction and prevention of fungal microorganism counts. The rate of chlorine dioxide production will vary depending on the relative humidity (RH) in the room. The above rate is for RH range of 40-60%. Each 3 mg chlorine dioxide per hour product (50-gram) unit will cover 4000 cubic feet of space. The 4000 cubic foot volume is recommended for safety reasons. This volume of space insures that the concentration of the gas remains below the OSHA regulated Permissible Exposure Limit (PEL) which is 0.1 ppmv (time weighted average (TWA) over a 8-hours per day or 40-hour work week) and the Short Term Exposure Limit (STEL) which is 0.3 ppmv (TWA over any 15-minute period) for chlorine dioxide.
(§2) All data is based on the dose described a unless otherwise noted. The spore counts per cubic meter prior to treatment are compared to spore counts per cubic meter post treatment with the treatment time indicated. […]
(§3) Treatment was performed using 1.2 mg chlorine dioxide gas per hour per 4000 cubic feet. […] The fungus could not be detected by visual inspection after about 30 days of treatment. […]

[2] = tested on: unidentified fungal strain having an appearance similar to powdery mildew; assay: Visual inspection of fungal infection on greenhouse mother plants; assay type: in vivo; conditions: 1.2 mg chlorine dioxide gas per hour per 4000 cubic feet, 4500 mother plants
Experimental: An experimental trial was performed in a greenhouse with approximately 1×10^6 cubic feet of space holding 4500 mother plants. All plants were potted in soil and were approximately 5-7 feet tall, depending on whether cuttings had recently been taken for clone propagation. Plants evidenced visible signs of infection with an unidentified fungal strain having an appearance similar to powdery mildew. The fungus was actively growing and covered most leaves and major stalks. The fungus was a strain that only infected the surface of the plants and was not systemic in the plants.
Treatment was performed using 1.2 mg chlorine dioxide gas per hour per 4000 cubic feet. Spore trap testing was performed pre-treatment and at seven days post-treatment. The fungus could not be detected by visual inspection after about 30 days of treatment. Treatment continued as a preventative measure, with further spore trap testing at 45 days post treatment. Spore trap data follows below in Table 5.

[3] = tested on: Aureobasidium; assay: Spore trap testing, treated greenhouse: Aureobasidium; assay type: in vivo; conditions: 1.2 mg chlorine dioxide gas per hour per 4000 cubic feet
Experimental: as §1, §2, §3

[4] = tested on: visible mold growing on flowers; assay: Trial 3: gaseous chlorine dioxide treatment of flowering plants with visible mold; assay type: in vivo; conditions: 0.45 mg chlorine dioxide gas per cubic foot, 18 hours
Experimental: A third trial was performed in a 33400 cubic foot space with 840 flowering plants at week eight of an eight-week cultivation cycle. Most plants had visible mold growing on flowers. The chlorine dioxide dose was 0.45 mg chlorine dioxide gas per cubic foot of space. Contact time was 18 hours, the room was maintained in darkness for the first 12 hours, and grow lights came on for the last 6 hours contact time, but the chlorine dioxide gas concentration monitoring was only performed for about 10 hours.
The HVAC system for the 33400 cubic foot space that had 840 flowering plants in the last week of flower failed. Within hours the temperature and humidity increased, and visible mold growth was found on most of the flower within 24 hours. To treat the mold and potentially prevent the loss of over 100 pounds of Cannabis flower product, a dose of 0.45 mg chlorine dioxide gas per cubic foot was dispensed into the space (14× ProKure® G Fast Release Gas packets (25-gram) (ProKure® Solutions)). […] Essentially, it was never above the detection limit of the sensor (0.5 ppmv). […] An odor would be expected for this application rate, so the lack of odor provides further evidence that the concentration of chlorine dioxide remained below the odor threshold of about 0.03 to 0.1 ppmv. […]

[5] = tested on: Cannabis plants; assay: Toxicity responses of Cannabis plants to foliar applications of chlorine dioxide; assay type: in vivo; conditions: for plants with damage to floral tissue (discoloration): after the third application
Experimental: Regular and excessive rates of chlorine dioxide dissolved in water were sprayed up to five times at 2-day intervals on two varieties of Cannabis plants in both vegetative and flowering stages to determine if plant damage would result. Adverse effects were assessed based on visible discoloration or chlorosis of leaves and/or flowers. All plants were monitored for several days after the final application of chlorine dioxide.
Experiments were performed in a greenhouse with temperatures between 70° F. and 80° F. Plants were potted in soil and appeared healthy and undamaged prior to treatment. All plants received the same amount of water and nutrients as controls, delivered via soil drenching. All plants, including controls, were the same age. At the beginning of the experiments, both flowering and vegetative plants had 3 weeks of the respective growth stage remaining.
Concentrations of chlorine dioxide tested include 0, 50, 100, and 500 ppm. All chlorine dioxide solutions were prepared from 500 ppm stock solution, mixed in containers and used immediately. Each of the rates was tested in triplicate with separate plants in both stages of growth and with Cannabis indica and Cannabis sativa Cannabis plants. A common trigger sprayer bottle with the tip adjusted to a mist setting was used to apply treatments. Plants were sprayed until all leaves and stems were visibly wet. Each treatment rate was applied at 2-day intervals, and the number of applications ranged from 1 to 5 depending on the amount of damage that occurred to the plant.
Damage was assessed 2 days after an application and prior to the next application. Treated plants were assessed for damage 6 days after the 5th and final spray treatment. Observed symptoms associated with the application of chlorine dioxide were necrosis of leaf tissue appearing as lesions between and across leaf veins and at leaf margins. Early symptoms included yellowing of leaves. Some lesions had dark brown borders and/or appeared desiccated.

[6] = tested on: Chaetomium; assay: Spore trap testing, treated greenhouse: Chaetomium; assay type: in vivo; conditions: 1.2 mg chlorine dioxide gas per hour per 4000 cubic feet
Experimental: as §1, §2, §3

[7] = cited from earlier work
[8] = tested on: Bipolaris/Drechslera; assay: Spore trap testing, treated greenhouse: Bipolaris/Drechslera; assay type: in vivo; conditions: 1.2 mg chlorine dioxide gas per hour per 4000 cubic feet
Experimental: as §1, §2, §3

[9] = tested on: Smuts/Myxomycetes; assay: Spore trap testing, treated greenhouse: Smuts/Myxomycetes; assay type: in vivo; conditions: 1.2 mg chlorine dioxide gas per hour per 4000 cubic feet
Experimental: as §1, §2, §3

[10] = tested on: Fusarium; assay: Spore trap testing, treated greenhouse: Fusarium; assay type: in vivo; conditions: 1.2 mg chlorine dioxide gas per hour per 4000 cubic feet
Experimental: as §1, §2, §3

[11] = tested on: Alternaria; assay: Spore trap testing, treated greenhouse: Alternaria; assay type: in vivo; conditions: 1.2 mg chlorine dioxide gas per hour per 4000 cubic feet
Experimental: as §1, §2, §3

[12] = tested on: Cladosporium; assay: Spore trap testing, treated greenhouse: Cladosporium; assay type: in vivo; conditions: 1.2 mg chlorine dioxide gas per hour per 4000 cubic feet
Experimental: as §1, §2, §3

[13] = tested on: Cannabis plants; assay: Toxicity responses of Cannabis plants to applications of gaseous chlorine dioxide; assay type: in vivo
Source text: Two varieties of Cannabis plants in both vegetative and flowering stages were exposed to various amounts of chlorine dioxide gas to determine if plant damage would result. Adverse effects were based on discoloration or chlorosis type damage to leaves and/or flowers. Leaves of each plant were collected prior to experiments and again 2 days post treatment for tissue analysis. Leaf samples were sent to a third-party laboratory for analysis of nutrients and total chloride (Cl^−). Tissue analysis of leaves pre- and post-treatment were compared to determine uptake of chlorine dioxide and/or its by-products. Control plants were used for visual comparison in determining plant damage. All plants were monitored for several days after application of chlorine dioxide gas. Plants were potted in soil and appeared healthy and undamaged unless otherwise noted. All plants including controls were of the same age for each growth stage. • The chlorine dioxide gas exposure was based on concentration with units of mg of chlorine dioxide per cubic foot of space.
A first trial was performed in a space of 1550 cubic feet with four healthy plants in the space, two of which were in flower at week 5 of 8, and the other two of which had one week of vegetative stage remaining. The chlorine dioxide dose was 1.9 mg chlorine dioxide per cubic foot of space (one 25 g ProKure® G Fast Release Gas packet (ProKure® Solutions, Phoenix, AZ) and 4 liters of 500 ppm chlorine dioxide solution). Contact time was 18 hours, and the room was maintained in darkness for the duration of the contact time.
A second trial was performed in a space of about 33400 cubic feet with 840 flowering plants at week eight of an eight-week cultivation cycle. All plants were healthy. […] The chlorine dioxide dose was 0.45 mg chlorine dioxide gas per cubic foot of space. Contact time was 18 hours, and the room was maintained in darkness for the first 12 hours, and grow lights came on for the last 6 hours of contact time, but the chlorine dioxide gas concentration monitoring was only performed for about 10 hours.

[14] = tested on: Basidiospores; assay: Spore trap testing, treated greenhouse: Basidiospores; assay type: in vivo; conditions: 1.2 mg chlorine dioxide gas per hour per 4000 cubic feet
Experimental: as §1, §2, §3

[15] = tested on: total spores; assay: Spore trap testing, treated greenhouse: Total spores; assay type: in vivo; conditions: 1.2 mg chlorine dioxide gas per hour per 4000 cubic feet
Experimental: as §1, §2, §3

[16] = tested on: Torula; assay: Spore trap testing, treated greenhouse: Torula; assay type: in vivo; conditions: 1.2 mg chlorine dioxide gas per hour per 4000 cubic feet
Experimental: as §1, §2, §3

[17] = tested on: Ulocladium; assay: Spore trap testing, treated greenhouse: Ulocladium; assay type: in vivo; conditions: 1.2 mg chlorine dioxide gas per hour per 4000 cubic feet
Experimental: as §1, §2, §3

[18] = tested on: Oidium; assay: Spore trap testing, treated greenhouse: Oidium; assay type: in vivo; conditions: 1.2 mg chlorine dioxide gas per hour per 4000 cubic feet
Experimental: as §1, §2, §3

[19] = tested on: Ascospores; assay: Spore trap testing, treated greenhouse: Ascospores; assay type: in vivo; conditions: 1.2 mg chlorine dioxide gas per hour per 4000 cubic feet
Experimental: as §1, §2, §3

[20] = tested on: Cannabis plants; assay: Effects of chlorine dioxide on vegetative growth (grow tent, leaf count); assay type: in vivo; conditions: about 3 mg of chlorine dioxide per hour, 10 days; for Leaf Count # of new leaves / Leaf Count Final: Experimental tent, 240 cubic feet
Experimental: Experiments were performed to determine the effects of using a continuous release dose of about 3 mg of chlorine dioxide per hour on the vegetative growth of Cannabis plants.
Cannabis plants were placed in a grow tent and grown under artificial lighting for 10 days. Leaf counts were performed prior to placing in the tent and again after 10 days. Two separate grow tents were used, one for the experiment and one as the control. The total leaf count was compared between the experimental and control plants. Temperature and relative humidity measurements were taken 3 times per day to ensure both tents maintained the same environmental conditions.
A pouch was hung from the top of the inside of the experimental tent. The pouch dispensed approximately 3 mg of chlorine dioxide per hour for the duration of the trial (10 days). Within the experimental tent the Cannabis plants were exposed to about 720 mg of gaseous chlorine dioxide over the 10-day period.
Three Cannabis plants were placed into each tent. Two of the plants were of a Cannabis indica variety, and one plant was a Cannabis sativa variety. The photoperiod used in both tents was 20 hours with lights on followed by 4 hours with lights off. All watering, nutrients, pest control, etc. were identical for all plants.

[21] = 500 ppm foliar spray, all plants, after the fifth application

[O][Cl+][O-] [chlorine dioxide]
Penicillium/Aspergillus spore Count ([1]; 7 Days Post-Treatment): 0 per cubic meter
Penicillium/Aspergillus spore Count ([1]; 45 Days Post-Treatment): 0 per cubic meter
time of treatment after which the fungus could not be detected by visual inspection [2]: about 30 days
Aureobasidium spore Count ([3]; 7 Days Post-Treatment): 0 per cubic meter
Aureobasidium spore Count ([3]; 45 Days Post-Treatment): 0 per cubic meter
visible mold on the plants after the application [4]: No mold was visible on the plants after the application
foliar or flower tissue damage ([5]; 50 ppm chlorine dioxide in water, foliar spray, five applications at 2-day intervals): No foliar or flower tissue damage was visible
plants exhibiting damage to leaves ([5]; 100 ppm foliar spray, indica-type flowering plants, two days after the 4th application): Two out of the three
damage to leaves or flowers ([5]; 100 ppm foliar spray, sativa-type flowering plants): None of the sativa-type flowering plants exhibited damage to leaves or flowers
visible damage to leaves ([5]; 100 ppm foliar spray, vegetative plants of both varieties): exhibited visible damage to leaves following the fourth application
smell compared with control plants [5, 21]: did not have the same smell as control plants
tissue damage [5, 21]: exhibited tissue damage after the fifth application
leaf damage ([5]; 500 ppm foliar spray, all plants, single application): exhibited leaf damage 24 to 48 hours after a single application
plants with damage to floral tissue (discoloration) ([5]; 500 ppm foliar spray, indica-type plants): 2 of the 3
plants with damage to floral tissue (discoloration) ([5]; 500 ppm foliar spray, sativa-type plants): 1 of the 3
Chaetomium spore Count ([6]; 7 Days Post-Treatment): 0 per cubic meter
Chaetomium spore Count ([6]; 45 Days Post-Treatment): 0 per cubic meter
Short Term Exposure Limit (STEL) ([7]; TWA over any 15-minute period): 0.3 ppmv
OSHA regulated Permissible Exposure Limit (PEL) ([7]; time weighted average over 8 hours per day or 40-hour work week): 0.1 ppmv
Bipolaris/Drechslera spore Count ([8]; 7 Days Post-Treatment): 0 per cubic meter
Bipolaris/Drechslera spore Count ([8]; 45 Days Post-Treatment): 0 per cubic meter
Smuts/Myxomycetes spore Count ([9]; 7 Days Post-Treatment): 173 per cubic meter
Smuts/Myxomycetes spore Count ([9]; 45 Days Post-Treatment): 13 per cubic meter
Fusarium spore Count ([10]; 7 Days Post-Treatment): 0 per cubic meter
Fusarium spore Count ([10]; 45 Days Post-Treatment): 0 per cubic meter
Alternaria spore Count ([11]; 7 Days Post-Treatment): 0 per cubic meter
Alternaria spore Count ([11]; 45 Days Post-Treatment): 0 per cubic meter
Cladosporium spore Count ([12]; 7 Days Post-Treatment): 54 per cubic meter
Cladosporium spore Count ([12]; 45 Days Post-Treatment): 0 per cubic meter
assessment of the dose ([13]; Trial 1, 1.9 mg chlorine dioxide per cubic foot): considered detrimental
plant death ([13]; Trial 1, 1.9 mg chlorine dioxide per cubic foot, 18 hours): none of the 4 plants died
plant damage ([13]; Trial 1, 1.9 mg chlorine dioxide per cubic foot, 18 hours, 24-48 hours post-treatment): all 4 plants showed damage in the form of yellowing and chlorosis
plant appearance ([13]; Trial 1, 1.9 mg chlorine dioxide per cubic foot, immediately following the 18 hours of contact time): the plants still appeared healthy
plant damage ([13]; Trial 2, 0.45 mg chlorine dioxide per cubic foot, 18 hours, 840 healthy flowering plants): All plants remained healthy and undamaged
Basidiospores Count ([14]; 7 Days Post-Treatment): 53 per cubic meter
Basidiospores Count ([14]; 45 Days Post-Treatment): 0 per cubic meter
Total spore Count ([15]; 7 Days Post-Treatment): 320 per cubic meter
Total spore Count ([15]; 45 Days Post-Treatment): 13 per cubic meter
Torula spore Count ([16]; 7 Days Post-Treatment): 0 per cubic meter
Torula spore Count ([16]; 45 Days Post-Treatment): 0 per cubic meter
Ulocladium spore Count ([17]; 7 Days Post-Treatment): 0 per cubic meter
Ulocladium spore Count ([17]; 45 Days Post-Treatment): 0 per cubic meter
Oidium spore Count ([18]; 7 Days Post-Treatment): 13 per cubic meter
Oidium spore Count ([18]; 45 Days Post-Treatment): 0 per cubic meter
Ascospores Count ([19]; 7 Days Post-Treatment): 27 per cubic meter
Ascospores Count ([19]; 45 Days Post-Treatment): 0 per cubic meter
Leaf Count # of new leaves ([20]; Indica): 68 and 36
Leaf Count Final ([20]; Indica): 92 and 61
Leaf Count # of new leaves ([20]; Sativa): 52
Leaf Count Final ([20]; Sativa): 83
visible sign of adverse effects ([20]; 240 cubic feet tent): none of the plants showed any visible sign of adverse effects

Reference: patent US12329159B2, “Systems and methods for use of chlorine dioxide in cultivation and post-harvest applications” (Prokure Solutions, LLC, priority 2018, dated 2025)
